In data set [1] the target is T1, rat brain MAO-A (Rattus norvegicus, UniProt P21396).
T1 construct: from tissue; host or cells: rat brain homogenate, 4500 g pellet
T1 sequence (P21396 1-526): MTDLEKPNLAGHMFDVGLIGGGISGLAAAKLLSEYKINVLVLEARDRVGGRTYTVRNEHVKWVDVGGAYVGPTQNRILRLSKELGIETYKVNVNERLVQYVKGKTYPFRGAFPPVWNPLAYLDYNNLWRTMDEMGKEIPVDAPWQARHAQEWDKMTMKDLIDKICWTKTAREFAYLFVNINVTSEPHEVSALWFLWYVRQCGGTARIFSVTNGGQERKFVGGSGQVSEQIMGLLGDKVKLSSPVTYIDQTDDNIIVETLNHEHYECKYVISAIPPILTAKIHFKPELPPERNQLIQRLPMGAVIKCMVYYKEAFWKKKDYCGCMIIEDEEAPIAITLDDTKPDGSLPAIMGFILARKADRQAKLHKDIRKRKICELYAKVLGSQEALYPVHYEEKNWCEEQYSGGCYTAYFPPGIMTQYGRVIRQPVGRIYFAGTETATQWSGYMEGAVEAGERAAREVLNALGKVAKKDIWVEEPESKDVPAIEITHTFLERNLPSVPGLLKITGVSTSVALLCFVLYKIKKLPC
In words: In vitro inhibition of rat brain MAO-A. It is filed as biochemical. The following applies: rat brain homogenate. Here is the method:
(§1) Rats were decapitated and the brains were quickly taken into a weighted ice-cold sucrose buffer (0.32 M), and their weights were determined. All subsequent procedures were performed at 0-4° C. The brains were homogenized in 0.25 M sucrose (one part tissue to 20 parts sucrose) in a Teflon glass homogenizer followed by the addition of sucrose buffer to a final concentration of 10% homogenate. The homogenates were centrifuged at 600 g for 15 min. The supernatant fraction was taken out and centrifuged at 4500 g for 30 min, the pellet was diluted in 0.32 M sucrose buffer and kept frozen for later assaying of MAO. Protein concentration was determined with Bradford reagent at 595 nm, using bovine serum albumin as a standard.
(§2) The test compound was added to a suitable dilution of the enzyme preparation (70 μg protein for MAO-B and 150 μg MAO-A assay) in 0.05 M phosphate buffer (pH 7.4). The mixture was incubated together with […], a specific inhibitor of MAO-B (for determination of MAO-A) or […] clorgylin, a specific inhibitor of MAO-A (for determination of MAO-B). Incubation was carried for 1 h at 37° C. before addition of ^14C-5-hydroxytryptamine binoxalate ([…]) for determination of MAO-A, or ^14C-phenylethylamine 100 µM for determination of MAO-B, and incubation continued for 30 min or 20 min, respectively. The reaction was stopped with 2 M ice-cold citric acid, and the metabolites were extracted and determined by liquid-scintillation counting in cpm units.
(§3) MAO-A and MAO-B activities were determined in rat brain homogenate in vitro following incubation with varying concentrations of the test compounds.
In another experiment, the in vitro inhibitory activity of HLA20, M32, VK-28, M30, M31, and propargylamine (P) was tested against rat brain MAO-A. The test compounds were added to buffer containing 10^−7M deprenyl and were incubated with the tissue homogenate for 60 min at 37° C. before addition of ^14C-5-hydroxytryptamine. MAO-A activity in presence of the test compound was expressed as a percentage of that in control samples.

In data set [2] the target is T2, rat brain MAO-B (Rattus norvegicus, UniProt P19643).
T2 construct: from tissue; host or cells: rat brain homogenate, 4500 g pellet
T2 sequence (P19643 1-520): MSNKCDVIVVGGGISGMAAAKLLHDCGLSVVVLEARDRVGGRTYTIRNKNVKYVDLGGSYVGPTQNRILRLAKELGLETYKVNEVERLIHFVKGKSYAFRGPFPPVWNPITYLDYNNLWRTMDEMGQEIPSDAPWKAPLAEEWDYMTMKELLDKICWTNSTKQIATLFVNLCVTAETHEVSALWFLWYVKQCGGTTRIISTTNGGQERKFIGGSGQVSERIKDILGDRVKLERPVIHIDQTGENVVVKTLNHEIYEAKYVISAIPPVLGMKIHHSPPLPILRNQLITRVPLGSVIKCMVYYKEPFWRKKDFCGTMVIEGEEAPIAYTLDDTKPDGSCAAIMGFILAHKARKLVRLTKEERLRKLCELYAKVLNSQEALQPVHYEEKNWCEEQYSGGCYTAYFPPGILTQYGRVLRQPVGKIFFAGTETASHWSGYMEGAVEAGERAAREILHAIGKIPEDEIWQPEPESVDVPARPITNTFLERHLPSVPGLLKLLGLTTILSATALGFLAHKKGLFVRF
The data set is described as follows: In vitro inhibition of rat brain MAO-B. Format: biochemical. Particulars: for IC50: rat brain homogenate; for inhibition at 100 µM: read-out: inhibition of MAO-B. Here is the method: as §1, §2, §3
MAO-B activity in presence of the test compound was expressed as a percentage of that in control samples.

The subject of data set [3] is PC12 cells. In words: Neuroprotection of PC12 cells against serum-deprivation induced apoptosis (MTT test). Format: cell-based, rat. Here is the method: Rat PC12 cells, originated from rat pheochromocytoma, were grown at 37° C., in a humid 5% CO2, 95% air environment, in a growth medium containing Dulbecco's modified Eagle's Medium (DMEM, GIBCO, BRL) supplemented with glucose (1 mg/1 ml), 5% fetal calf serum, 10% horse serum, and 1% of a mixture of streptomycin/penicillin. On confluence, the culture was removed and the cells were detached by vigorous washing, centrifuged at 200 g for 5 min and resuspended in DMEM with full serum content. 0.5×10^4 cells/well were placed in microtiter plates (96 wells) precoated with collagen (10 μg/cm^2 were allowed to attach for 24 h before treatment).
Twenty-four hours after attachment of the PC12 cells as described in (g), the medium was replaced with DMEM containing 0.1% BSA. The test compounds were added to the cells after 1 h of incubation. After 24 h incubation, the cells were subjected to MTT test as previously described (Gassen et al., 1998). The absorption was determined in a Perkin-Elmer Dual Wavelength Eliza-Reader at λ=570/650 nm after automatic subtraction of background readings. The results are expressed as percentage of the untreated control.
PC12 cells were grown in serum-free medium alone or in serum-free medium with different concentration of the chelators VK-28, M32, HLA20 and Rasagiline. After 24 h incubation, the cells were subjected to MTT test.
Cell viability was expressed as a percentage of cells cultured in medium supplemented with serum, which served as the control group and was designated as 100%. […] Experimental data are shown as mean±SD (r=6).
For orientation: Tetrazolium dyes change colour on reduction, which living cells bring about.

Each structure is given as a SMILES string. Where a name gives a salt, the structure may show the parent alone. A value given as a limit tells only on which side of the number the result lay.

Consider `C#CCN(C)Cc1ccc(O)c2ncccc12` [Compound M30], for which the concentration for half-maximal inhibition (IC50) in data set [1] and in data set [2] was less than 0.1 µM each time.

Turning to `NC(Cc1ccc(O)c2ncccc12)C(=O)O` (racemic) (as salt: salt) [HLM8, DL-3-(8-hydroxyquinolin-5-yl)alanine], the melting point (commonly the temperature of the solid-liquid transition) is 194 °C (dec.).

For `CCOC(=O)C(CS)NCc1ccc(O)c2ncccc12` (stereo not drawn) [Compound M32], in data set [3] (0.1 μM chelator, serum-free medium, 24 h, serum-free control 38%), the “number of survival cells (cell viability, % of cells cultured with serum)” value turned out to be 59%. Also, in data set [3] (1 or 10 μM, compared with 0.1 μM), the “change in the protection against PC12 cell death induced by serum withdrawal” value is reported as “no significant change in the protection”. Also, the “effect on MAO-A” value in data set [1] is given as “almost no effect”. Also, the inhibition (in general, the change of the read-out against control, counted positive when it falls) at 100 µM in data set [2] was 17.2%.

Turning to `C#CCN` [Propargylamine, propargylamine, reference compound], the IC50 – broadly, the concentration at which inhibition is half-maximal – in data set [1] came to 66.3 µM; in data set [2] it was 10.1 µM.

With `CCOC(=O)C(C)(NC(=O)Cc1ccc(O)c2ncccc12)C(=O)OCC` [HLM7, diethyl 8-hydroxyquinolin-5-yl-methyl-acetamidomalonate], the melting point lay within 153 to 154 °C.

On to `C#CCNC(Cc1ccc(O)c2ncccc12)C(=O)OCC` (stereo not drawn) [Compound M31], for which the “effect on MAO-A” value in data set [1] was “almost no effect”. In addition, the inhibition at 100 µM in data set [2] came out at 14.2%.

Values taken from patent US8058442B2 (Technion Research and Development Foundation Ltd., priority 2002, dated 2011).
